Assay results from ChEMBL document CHEMBL4402577, “Discovery and Optimization of a Compound Series Active against Trypanosoma cruzi, the Causative Agent of Chagas Disease” (J Med Chem, 2020).
In brackets after ≈: the same amount, converted by molar mass. Activity calls are given as the source filed them. The calls are words filed in the database; no cut-off is given here.

Assays:
[1] = Intrinsic clearance in CD1 mouse liver microsomes at 0.5 uM measured up to 30 mins in presence of NADPH by UPLC-MSMS analysis; type: ADME, Microsome; details: 0.5 h
[2] = tested on: Trypanosoma cruzi; experiment: Antitrypanosomal activity against Trypanosoma cruzi Brazil strain trypomastigotes coexpressing luciferase infected in BALB/c mouse model of acute chagas disease assessed as reduction in parasite level at 30 mg/kg, po treated 3 days post infection and measured on day 5 and 10; type: functional, organism-based
[3] = Toxicity in ip dosed BALB/c mouse model of acute chagas disease assessed as maximum tolerated dose; type: organism-based; details: in vivo
[4] = tested on: Trypanosoma cruzi; experiment: Antitrypanosomal activity against Trypanosoma cruzi Brazil strain trypomastigotes coexpressing luciferase infected in BALB/c mouse model of acute chagas disease assessed as reduction in parasite level at 30 mg/kg, ip treated 3 days post infection and measured on day 5 and 10; type: functional, organism-based
[5] = tested on: Trypanosoma cruzi; experiment: Antitrypanosomal activity against Trypanosoma cruzi Tulahuen strain C2C4 trypomastigotes infected in rat L6 cells incubated for 96 hrs by photometric method based assay; type: functional, organism-based; details: Tulahuen strain C2C4, L6, 96 h
[6] = Fraction unbound in NMRI mouse plasma at 30 mg/kg, iv by UPLC-MS/MS analysis; type: ADME, organism-based
[7] = tested on: L6; experiment: Cytotoxicity against rat L6 cells incubated for 70 hrs by resazurin dye based assay; type: cell-based; details: L6, 70 h
[8] = Selectivity ratio, EC50 for cytotoxicity against rat L6 cells to EC50 for antitrypanosomal activity against Trypanosoma cruzi Tulahuen strain C2C4 trypomastigotes infected in rat L6 cells; type: toxicity, cell-based; details: read-out: Ratio EC50
[9] = Kinetic aqueous solubility of compound in DMSO by nephelometric analysis; type: physicochemical; details: read-out: Kinetic_solubility

Q: For `CC(C)(C)[C@H]1CC[C@H](n2c(=O)[nH]c3ccc(N)cc3c2=O)CC1`, which intrinsic clearance [1] is on record?
A: Its intrinsic clearance is 2 mL/min/g.

Q: What about the Activity [2] of the same compound?
A: Its Activity is “inactive”.

Q: What about the MTD [3] of the same compound?
A: The MTD was 30 mg/kg.

Q: What about the Activity [4] of the same compound?
A: The Activity was “inactive”.

Q: What about the EC50 [5] of the same compound?
A: The EC50 was 0.063 µM.

Q: And the fraction unbound [6]?
A: Its fraction unbound is 0.011.

Q: And the EC50 [7]?
A: Its EC50 is 21 µM.

Q: What about the selectivity ratio [8] of the same compound?
A: Its selectivity ratio is 330.

Q: Which intrinsic clearance [1] does the source give for `CC(=O)Nc1ccc2[nH]c(=O)n([C@H]3CC[C@H](C(C)C)CC3)c(=O)c2c1` here?
A: Its intrinsic clearance is 3.2 mL/min/g.

Q: And the Activity [2]?
A: Its Activity is “Active”.

Q: What about the solubility kinetic [9] of the same compound?
A: The solubility kinetic was 73 µM (≈ 25.1 µg/mL).

Q: And the Activity [4]?
A: Its Activity is “Active”.

Q: And the EC50 [5]?
A: Its EC50 is 0.026 µM.

Q: What about the EC90 [5] of the same compound?
A: Its EC90 is 0.038 µg/mL (≈ 0.111 µM).

Q: And the fraction unbound [6]?
A: Its fraction unbound is 0.028.

Q: What about the EC50 [7] of the same compound?
A: Its EC50 is 3.8 µM.

Q: What about the selectivity ratio [8] of the same compound?
A: Its selectivity ratio is 150.

Q: Which intrinsic clearance [1] does the source give for `CC(=O)Nc1ccc2[nH]c(=O)n([C@H]3CC[C@@H](C(C)(C)C)CC3)c(=O)c2c1` here?
A: Its intrinsic clearance is less than 0.5 mL/min/g.

Q: And the solubility kinetic [9]?
A: The solubility kinetic was 95 µM (≈ 34 µg/mL).

Q: And the EC50 [5]?
A: Its EC50 is 0.017 µM.

Q: What about the EC50 [7] of the same compound?
A: Its EC50 is 5 µM.

Q: And the selectivity ratio [8]?
A: Its selectivity ratio is 290.

Q: Which results are given for `CC(=O)Nc1ccc2[nH]c(=O)n([C@H]3CC[C@H](C(C)(C)C)CC3)c(=O)c2c1`?
A: intrinsic clearance [1]: 3.2 mL/min/g; solubility kinetic [9]: 131 µM (≈ 46.8 µg/mL); EC50 [5]: 0.022 µM; EC50 [7]: 3.9 µM; selectivity ratio [8]: 180

Q: With `CC[C@H]1CC[C@@H](n2c(=O)[nH]c3ncc(N)cc3c2=O)CC1` as the compound, how does the intrinsic clearance [1] read?
A: Its intrinsic clearance is 1.7 mL/min/g.

Q: And the solubility kinetic [9]?
A: Its solubility kinetic is less than 17 µM.

Q: And the EC50 [5]?
A: Its EC50 is 1.2 µM.

Q: What about the EC50 [7] of the same compound?
A: The EC50 was 250 µM.

Q: What about the selectivity ratio [8] of the same compound?
A: The selectivity ratio was 210.

Q: What does the source list for `CCC[C@H]1CC[C@H](n2c(=O)[nH]c3ccc(NC(C)=O)cc3c2=O)CC1`?
A: intrinsic clearance [1]: 1.5 mL/min/g; solubility kinetic [9]: 47 µM (≈ 16.1 µg/mL); EC50 [5]: 0.015 µM; EC50 [7]: 11 µM; selectivity ratio [8]: 730

Q: With `CC[C@H]1CC[C@H](n2c(=O)[nH]c3ncc(NC(C)=O)cc3c2=O)CC1` as the compound, how does the intrinsic clearance [1] read?
A: The intrinsic clearance was 0.5 mL/min/g.

Q: What about the solubility kinetic [9] of the same compound?
A: The solubility kinetic was 22 µM (≈ 7.27 µg/mL).

Q: What about the EC50 [5] of the same compound?
A: Its EC50 is 0.3 µM.

Q: And the EC50 [7]?
A: The EC50 was 215 µM.

Q: What about the selectivity ratio [8] of the same compound?
A: Its selectivity ratio is 720.

Q: For `CC[C@H]1CC[C@H](n2c(=O)[nH]c3ncc(N)cc3c2=O)CC1`, which intrinsic clearance [1] is on record?
A: The intrinsic clearance was 0.9 mL/min/g.

Q: What about the solubility kinetic [9] of the same compound?
A: The solubility kinetic was 55 µM (≈ 15.9 µg/mL).

Q: And the EC50 [5]?
A: Its EC50 is 0.34 µM.

Q: And the EC50 [7]?
A: The EC50 was 51 µM.

Q: And the selectivity ratio [8]?
A: The selectivity ratio was 150.

Q: Which intrinsic clearance [1] does the source give for `CC(C)[C@H]1CC[C@H](n2c(=O)[nH]c3ncc(N)cc3c2=O)CC1` here?
A: The intrinsic clearance was 1.9 mL/min/g.

Q: And the solubility kinetic [9]?
A: Its solubility kinetic is 25 µM (≈ 7.56 µg/mL).

Q: And the EC50 [5]?
A: Its EC50 is 0.12 µM.

Q: What about the EC50 [7] of the same compound?
A: The EC50 was 46 µM.

Q: What about the selectivity ratio [8] of the same compound?
A: Its selectivity ratio is 380.

Q: For `CC(=O)Nc1ccc2[nH]c(=O)n([C@H]3CO[C@@H](C(C)(C)C)OC3)c(=O)c2c1`, which intrinsic clearance [1] is on record?
A: The intrinsic clearance was 7.2 mL/min/g.

Q: What about the solubility kinetic [9] of the same compound?
A: Its solubility kinetic is greater than 270 µM.

Q: And the EC50 [5]?
A: Its EC50 is 6.4 µM.

Q: And the EC50 [7]?
A: Its EC50 is 183 µM.

Q: And the selectivity ratio [8]?
A: The selectivity ratio was 29.

Q: For `CC(=O)Nc1cnc2[nH]c(=O)n([C@H]3CC[C@H](C(C)(C)C)CC3)c(=O)c2c1`, which intrinsic clearance [1] is on record?
A: The intrinsic clearance was 1.4 mL/min/g.

Q: And the solubility kinetic [9]?
A: Its solubility kinetic is 310 µM (≈ 111 µg/mL).

Q: And the EC50 [5]?
A: Its EC50 is 0.84 µM.

Q: What about the EC50 [7] of the same compound?
A: Its EC50 is 67 µM.

Q: What about the selectivity ratio [8] of the same compound?
A: The selectivity ratio was 80.

Q: Which intrinsic clearance [1] does the source give for `CC[C@H]1CC[C@@H](n2c(=O)[nH]c3ccc(N)cc3c2=O)CC1` here?
A: The intrinsic clearance was 5.2 mL/min/g.

Q: What about the solubility kinetic [9] of the same compound?
A: The solubility kinetic was greater than 350 µM.

Q: What about the EC50 [5] of the same compound?
A: Its EC50 is 0.33 µM.

Q: What about the EC90 [5] of the same compound?
A: Its EC90 is 1.2 µg/mL (≈ 4.18 µM).

Q: And the EC50 [7]?
A: The EC50 was 52 µM.

Q: And the selectivity ratio [8]?
A: Its selectivity ratio is 160.

Q: What does the source list for `CC[C@H]1CC[C@H](n2c(=O)[nH]c3ccc(NC(C)=O)cc3c2=O)CC1`?
A: intrinsic clearance [1]: 2.4 mL/min/g; solubility kinetic [9]: 115 µM (≈ 37.9 µg/mL); EC50 [5]: 0.058 µM; EC50 [7]: 14 µM; selectivity ratio [8]: 240
